Laboratory results as given in patent US9073974B2, “RGD-containing cyclic peptides” (The Regents of the University of California, priority 2009, dated 2015).
Numbered stars: 1 amine (or outer) side, 2 acyl side, 3 side chain; on linkers, the order of the positions; unused ones are H or OH. Bridge positions count the residues as written; N and C are the ends. Square brackets hold non-standard residues; d marks the D form. Peptide text beside a SMILES is read from it. * marks the point of attachment. Benzoyl(4-NO2) = O=C(c1ccc([N+](=O)[O-])cc1)*; Pro(5R-Ph) = O=C(O)[C@@H]1CC[C@H](c2ccccc2)N1; Benzoyl(3,5-(OH)2) = O=C(c1cc(O)cc(O)c1)*; Benzoyl(4-CF3) = O=C(c1ccc(C(F)(F)F)cc1)*; Benzoyl(4-Ph) = O=C(c1ccc(-c2ccccc2)cc1)*; Phenylacetyl(4-Cl) = O=C(Cc1ccc(Cl)cc1)*; NH(CH2CH2O)2CH2CH2NH2 = NCCOCCOCCN*; dBta = N[C@H](Cc1csc2ccccc12)C(=O)O; Cyclohexylacetyl = O=C(CC1CCCCC1)*; Hydrocinnamoyl = O=C(CCc1ccccc1)*; NMeR = CN[C@@H](CCCNC(=N)N)C(=O)O; dCit = NC(=O)NCCC[C@@H](N)C(=O)O; hArg = N=C(N)NCCCC[C@H](N)C(=O)O; NMeD = CN[C@@H](CC(=O)O)C(=O)O; Agp = N=C(N)NC[C@H](N)C(=O)O; Suc = O=C(CCC(=O)[*:2])[*:1]; Isobutyryl = CC(C)C(=O)*; Pentanoyl = CCCCC(=O)*; X3 = Cc1nc(C(=O)*)cs1; βAla = NCCC(=O)O; Sar = CNCC(=O)O

Biological target: αvβ3 integrin (Homo sapiens, UniProt P05106+P06756)
Sequence (P06756 31-889 limits assumed): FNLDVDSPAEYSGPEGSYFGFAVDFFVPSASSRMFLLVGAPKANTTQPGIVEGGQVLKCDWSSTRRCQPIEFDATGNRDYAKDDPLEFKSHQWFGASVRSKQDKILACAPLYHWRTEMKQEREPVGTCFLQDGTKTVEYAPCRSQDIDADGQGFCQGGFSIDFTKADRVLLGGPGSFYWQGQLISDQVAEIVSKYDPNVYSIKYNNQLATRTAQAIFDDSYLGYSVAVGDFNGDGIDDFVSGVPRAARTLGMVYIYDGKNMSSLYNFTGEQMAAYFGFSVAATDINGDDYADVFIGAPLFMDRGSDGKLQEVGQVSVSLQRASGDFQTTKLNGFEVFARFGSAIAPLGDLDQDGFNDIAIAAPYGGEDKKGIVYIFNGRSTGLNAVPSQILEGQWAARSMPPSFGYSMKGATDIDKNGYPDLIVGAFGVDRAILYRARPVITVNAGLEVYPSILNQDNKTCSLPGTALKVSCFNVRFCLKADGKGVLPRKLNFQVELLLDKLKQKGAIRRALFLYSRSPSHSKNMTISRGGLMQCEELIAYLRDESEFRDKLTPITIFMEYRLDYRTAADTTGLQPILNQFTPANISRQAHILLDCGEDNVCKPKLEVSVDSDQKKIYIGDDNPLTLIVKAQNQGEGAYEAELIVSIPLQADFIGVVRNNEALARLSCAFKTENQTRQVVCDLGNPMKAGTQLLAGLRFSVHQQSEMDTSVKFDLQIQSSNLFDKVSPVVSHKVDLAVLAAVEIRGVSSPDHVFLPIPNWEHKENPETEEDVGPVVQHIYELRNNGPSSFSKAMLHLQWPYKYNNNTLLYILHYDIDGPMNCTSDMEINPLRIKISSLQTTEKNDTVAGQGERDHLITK
Sequence (P06756 891-1048 partner limits assumed): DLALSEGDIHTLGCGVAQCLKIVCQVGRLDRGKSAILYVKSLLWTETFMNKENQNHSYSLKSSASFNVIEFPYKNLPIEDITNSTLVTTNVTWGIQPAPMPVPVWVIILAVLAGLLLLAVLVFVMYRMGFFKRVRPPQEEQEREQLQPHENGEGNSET
Sequence (P05106 27-788): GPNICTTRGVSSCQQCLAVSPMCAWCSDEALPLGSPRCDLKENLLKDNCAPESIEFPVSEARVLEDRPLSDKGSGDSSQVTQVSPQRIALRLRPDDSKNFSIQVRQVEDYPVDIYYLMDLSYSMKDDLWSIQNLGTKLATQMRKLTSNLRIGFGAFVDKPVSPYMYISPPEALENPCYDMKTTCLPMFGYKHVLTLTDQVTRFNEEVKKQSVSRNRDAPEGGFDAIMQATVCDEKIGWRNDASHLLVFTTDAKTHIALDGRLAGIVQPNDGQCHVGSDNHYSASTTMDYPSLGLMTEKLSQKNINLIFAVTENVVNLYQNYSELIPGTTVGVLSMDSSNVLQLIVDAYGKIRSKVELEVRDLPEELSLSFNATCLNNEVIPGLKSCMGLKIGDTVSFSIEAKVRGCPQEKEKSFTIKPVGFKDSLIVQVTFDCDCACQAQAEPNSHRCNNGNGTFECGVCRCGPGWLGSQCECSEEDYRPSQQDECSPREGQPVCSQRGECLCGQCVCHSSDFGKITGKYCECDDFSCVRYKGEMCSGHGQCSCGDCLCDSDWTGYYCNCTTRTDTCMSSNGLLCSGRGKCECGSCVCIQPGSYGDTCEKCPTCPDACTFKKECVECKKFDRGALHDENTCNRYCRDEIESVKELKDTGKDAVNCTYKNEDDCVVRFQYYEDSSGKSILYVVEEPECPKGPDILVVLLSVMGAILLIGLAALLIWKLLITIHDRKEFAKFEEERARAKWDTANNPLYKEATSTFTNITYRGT
Assay: Inhibition of biotinylated LXW7 binding to αvβ3-K562 cells (flow cytometry)
Design: expressed in transfected cells; host or cells: K562 (gift of Dr. Yoshikazu Takada, UC Davis)
Settings: LXW9-92: inhibiting the binding of biotinylated LXW7 against αvβ3-K562 cells
Description: The apparent IC50 were calculated using Graph Prism software (≦www.graphpad.com≧).
The samples were analyzed with Coulter XL-MCL flow cytometry. The histogram and mean fluorescence intensity (MFI) were determined. The apparent Kd, IC50 were calculated using Graph Prism software (≦www.graphpad.com≧).

Row | Compound | IC50 (LXW7 as internal reference) [nM] | IC50 (class symbols) [nM]
1 | CC(C)[C@H]1NC(=O)[C@@H](CC(=O)O)NC(=O)[C@H](CC(=O)O)NC(=O)CNC(=O)[C@H](CCCCNC(=N)N)NC(=O)CNC(=O)[C@H](N)CSSC[C@H](C(N)=O)NC1=O [LXW51, cG-HoArg-GDdvc] (H-[dC]G[hArg]GD[dD][dV][dC]-NH2; disulfide 1-8) | > 20000 | 
2 | CC(C)[C@H]1NC(=O)[C@@H](CC(=O)O)NC(=O)[C@H](CC(=O)O)NC(=O)CNC(=O)[C@H](CCCNC(=N)N)N(C)C(=O)CNC(=O)[C@H](N)CSSC[C@H](C(N)=O)NC1=O [LXW53, cG-(NMe)Arg-GDdvc] (H-[dC]G[NMeR]GD[dD][dV][dC]-NH2; disulfide 1-8) |  | < 1000
3 | CC(C)[C@H]1NC(=O)[C@@H](CC(=O)O)NC(=O)[C@H](CC(=O)O)NC(=O)CN(C)C(=O)[C@H](CCCNC(=N)N)NC(=O)CNC(=O)[C@H](N)CSSC[C@H](C(N)=O)NC1=O [LXW54, cGR-Sar-Ddvc] (H-[dC]GR[Sar]D[dD][dV][dC]-NH2; disulfide 1-8) | > 20000 | 
4 | CC(C)[C@H]1NC(=O)[C@@H](CC(=O)O)NC(=O)[C@H](CC(=O)O)N(C)C(=O)CNC(=O)[C@H](CCCNC(=N)N)NC(=O)CNC(=O)[C@H](N)CSSC[C@H](C(N)=O)NC1=O [LXW55, cGRG-(NMe)Asp-dvc] (H-[dC]GRG[NMeD][dD][dV][dC]-NH2; disulfide 1-8) | > 20000 | 
5 | CC(C)[C@H]1NC(=O)[C@@H](CC(=O)O)NC(=O)[C@H](CC(=O)O)NC(=O)CNC(=O)[C@H](CCCNC(=N)N)NC(=O)CNC(=O)[C@H](NC(=O)CCN)CSSC[C@H](C(N)=O)NC1=O [LXW56, 3-amino propanoyl-cGRGDdvc] (H-[βAla][dC]GRGD[dD][dV][dC]-NH2; disulfide 2-9) |  | < 1000
6 | CC(C)[C@H]1NC(=O)[C@@H](CC(=O)O)NC(=O)[C@H](CC(=O)O)NC(=O)CNC(=O)[C@H](CCCNC(=N)N)NC(=O)CNC(=O)[C@H](NC(=O)CCC(=O)NCCOCCOCCN)CSSC[C@H](C(N)=O)NC1=O [LXW57, (Ebes)-cGRGDdvc] ({NH(CH2CH2O)2CH2CH2NH2-Suc}-[dC]GRGD[dD][dV][dC]-NH2; disulfide 1-8) |  | < 1000
7 | CC(C)[C@H]1NC(=O)[C@@H](CC(=O)O)NC(=O)[C@H](CC(=O)O)NC(=O)CNC(=O)[C@H](CNC(=N)N)NC(=O)CNC(=O)[C@H](N)CSSC[C@H](C(N)=O)NC1=O [LXW58, cG-Agp-GDdvc] (H-[dC]G[Agp]GD[dD][dV][dC]-NH2; disulfide 1-8) | > 20000 | 
8 | CC(C)[C@H]1NC(=O)[C@@H](CC(=O)O)NC(=O)[C@H](CCC(=O)O)NC(=O)CNC(=O)[C@H](CNC(=N)N)NC(=O)CNC(=O)[C@H](N)CSSC[C@H](C(N)=O)NC1=O [LXW59, cG-Agp-GEdvc] (H-[dC]G[Agp]GE[dD][dV][dC]-NH2; disulfide 1-8) | > 20000 | 
9 | N=C(N)NCCC[C@@H]1NC(=O)CNC(=O)[C@H](N)CSSC[C@@H](C(N)=O)NC(=O)[C@@H](CC(=O)O)NC(=O)[C@@H](CO)NC(=O)[C@H](CC(=O)O)NC(=O)CNC1=O [LXW62, cGRGDsdC] (H-[dC]GRGD[dS][dD]C-NH2; disulfide 1-8) |  | > 10000
10 | N=C(N)NCCC[C@@H]1NC(=O)CNC(=O)[C@H](N)CSSC[C@H](C(N)=O)NC(=O)[C@@H](Cc2cccc3ccccc23)NC(=O)[C@@H](CC(=O)O)NC(=O)[C@H](CC(=O)O)NC(=O)CNC1=O [LXW64, cGRGDd-DNal1-c] |  | < 1000
11 | N=C(N)NCCC[C@@H]1NC(=O)CNC(=O)[C@H](N)CSSC[C@H](C(N)=O)NC(=O)[C@@H](Cc2ccc3ccccc3c2)NC(=O)[C@@H](CC(=O)O)NC(=O)[C@H](CC(=O)O)NC(=O)CNC1=O [LXW65, cGRGDd-DNal2-c] |  | < 1000
12 | N=C(N)NCCC[C@@H]1NC(=O)CNC(=O)[C@H](N)CSSC[C@H](C(N)=O)NC(=O)[C@@H](Cc2ccsc2)NC(=O)[C@@H](CC(=O)O)NC(=O)[C@H](CC(=O)O)NC(=O)CNC1=O [LXW66, cGRGDd-D3Thi-c] |  | < 1000
13 | N=C(N)NCCC[C@@H]1NC(=O)CNC(=O)[C@H](N)CSSC[C@H](C(N)=O)NC(=O)[C@@H](Cc2cccs2)NC(=O)[C@@H](CC(=O)O)NC(=O)[C@H](CC(=O)O)NC(=O)CNC1=O [LXW67, cGRGDd-D2Thi-c] |  | < 1000
14 | N=C(N)NCCC[C@@H]1NC(=O)CNC(=O)[C@H](N)CSSC[C@H](C(N)=O)NC(=O)[C@@H](Cc2c[nH]c3ccccc23)NC(=O)[C@@H](CC(=O)O)NC(=O)[C@H](CC(=O)O)NC(=O)CNC1=O [LXW68, cGRGDdwc] (H-[dC]GRGD[dD][dW][dC]-NH2; disulfide 1-8) |  | < 1000
15 | N=C(N)NCCC[C@@H]1NC(=O)CNC(=O)[C@H](N)CSSC[C@H](C(N)=O)NC(=O)[C@@H](Cc2cscn2)NC(=O)[C@@H](CC(=O)O)NC(=O)[C@H](CC(=O)O)NC(=O)CNC1=O [LXW69, cGRGDd-DTha-c] |  | 1000 to 10000
16 | N=C(N)NCCC[C@@H]1NC(=O)CNC(=O)[C@H](N)CSSC[C@H](C(N)=O)NC(=O)[C@@H]2CC[C@H](c3ccccc3)N2C(=O)[C@@H](CCCNC(N)=O)NC(=O)[C@H](CC(=O)O)NC(=O)CNC1=O [LXW70, cGRGD-DCit-Ppca-c] (H-[dC]GRGD[dCit][Pro(5R-Ph)][dC]-NH2; disulfide 1-8) |  | > 10000
17 | N=C(N)NCCC[C@@H]1NC(=O)CNC(=O)[C@H](N)CSSC[C@H](C(N)=O)NC(=O)[C@@H]2CC[C@H](c3ccccc3)N2C(=O)[C@@H](CCC(=O)O)NC(=O)[C@H](CC(=O)O)NC(=O)CNC1=O [LXW71, cGRGDe-Ppca-c] (H-[dC]GRGD[dE][Pro(5R-Ph)][dC]-NH2; disulfide 1-8) |  | 1000 to 10000
18 | N=C(N)NCCC[C@@H]1NC(=O)CNC(=O)[C@H](N)CSSC[C@H](C(N)=O)NC(=O)[C@@H](Cc2csc3ccccc23)NC(=O)[C@@H](CCCNC(N)=O)NC(=O)[C@H](CC(=O)O)NC(=O)CNC1=O [LXW73, cGRGD-DCit-DBta-c] (H-[dC]GRGD[dCit][dBta][dC]-NH2; disulfide 1-8) |  | 1000 to 10000
19 | CC(C)C(=O)N[C@@H]1CSSC[C@H](C(N)=O)NC(=O)[C@@H](C(C)C)NC(=O)[C@@H](CC(=O)O)NC(=O)[C@H](CC(=O)O)NC(=O)CNC(=O)[C@H](CCCNC(=N)N)NC(=O)CNC1=O [LXW76, isobutyryl-cGRGDdvc] (Isobutyryl-[dC]GRGD[dD][dV][dC]-NH2; disulfide 1-8) |  | < 1000
20 | CCCCC(=O)N[C@@H]1CSSC[C@H](C(N)=O)NC(=O)[C@@H](C(C)C)NC(=O)[C@@H](CC(=O)O)NC(=O)[C@H](CC(=O)O)NC(=O)CNC(=O)[C@H](CCCNC(=N)N)NC(=O)CNC1=O [LXW77, valeryl-cGRGDdvc] (Pentanoyl-[dC]GRGD[dD][dV][dC]-NH2; disulfide 1-8) |  | 1000 to 10000
21 | CC(C)[C@H]1NC(=O)[C@@H](CC(=O)O)NC(=O)[C@H](CC(=O)O)NC(=O)CNC(=O)[C@H](CCCNC(=N)N)NC(=O)CNC(=O)[C@H](NC(=O)CC2CCCCC2)CSSC[C@H](C(N)=O)NC1=O [LXW78, cyclohexyl acetyl-cGRGDdvc] (Cyclohexylacetyl-[dC]GRGD[dD][dV][dC]-NH2; disulfide 1-8) |  | 1000 to 10000
22 | CC(C)[C@H]1NC(=O)[C@@H](CC(=O)O)NC(=O)[C@H](CC(=O)O)NC(=O)CNC(=O)[C@H](CCCNC(=N)N)NC(=O)CNC(=O)[C@H](NC(=O)CCc2ccccc2)CSSC[C@H](C(N)=O)NC1=O [LXW80, 3-phenyl propionyl-cGRGDdvc] (Hydrocinnamoyl-[dC]GRGD[dD][dV][dC]-NH2; disulfide 1-8) |  | < 1000
23 | CC(C)[C@H]1NC(=O)[C@@H](CC(=O)O)NC(=O)[C@H](CC(=O)O)NC(=O)CNC(=O)[C@H](CCCNC(=N)N)NC(=O)CNC(=O)[C@H](NC(=O)Cc2ccc(Cl)cc2)CSSC[C@H](C(N)=O)NC1=O [LXW81, p-chlorophenyl acetyl-cGRGDdvc] ({Phenylacetyl(4-Cl)}-[dC]GRGD[dD][dV][dC]-NH2; disulfide 1-8) |  | 1000 to 10000
24 | CC(C)[C@H]1NC(=O)[C@@H](CC(=O)O)NC(=O)[C@H](CC(=O)O)NC(=O)CNC(=O)[C@H](CCCNC(=N)N)NC(=O)CNC(=O)[C@H](NC(=O)c2ccc([N+](=O)[O-])cc2)CSSC[C@H](C(N)=O)NC1=O [LXW82, 4-nitrobezoyl-cGRGDdvc] ({Benzoyl(4-NO2)}-[dC]GRGD[dD][dV][dC]-NH2; disulfide 1-8) |  | 1000 to 10000
25 | CC(C)[C@H]1NC(=O)[C@@H](CC(=O)O)NC(=O)[C@H](CC(=O)O)NC(=O)CNC(=O)[C@H](CCCNC(=N)N)NC(=O)CNC(=O)[C@H](NC(=O)c2cc(O)cc(O)c2)CSSC[C@H](C(N)=O)NC1=O [LXW83, 3,5-dihydroxy beznoyl-cGRGDdvc] ({Benzoyl(3,5-(OH)2)}-[dC]GRGD[dD][dV][dC]-NH2; disulfide 1-8) |  | < 1000
26 | CC(C)[C@H]1NC(=O)[C@@H](CC(=O)O)NC(=O)[C@H](CC(=O)O)NC(=O)CNC(=O)[C@H](CCCNC(=N)N)NC(=O)CNC(=O)[C@H](NC(=O)c2ccc(-c3ccccc3)cc2)CSSC[C@H](C(N)=O)NC1=O [LXW84, biphenyl-4-carbonyl-cGRGDdvc] ({Benzoyl(4-Ph)}-[dC]GRGD[dD][dV][dC]-NH2; disulfide 1-8) |  | < 1000
27 | CC(C)[C@H]1NC(=O)[C@@H](CC(=O)O)NC(=O)[C@H](CC(=O)O)NC(=O)CNC(=O)[C@H](CCCNC(=N)N)NC(=O)CNC(=O)[C@H](NC(=O)c2ccc(C(F)(F)F)cc2)CSSC[C@H](C(N)=O)NC1=O [LXW85, 4-(trifluoromethyl)benzoyl-cGRGDdvc] ({Benzoyl(4-CF3)}-[dC]GRGD[dD][dV][dC]-NH2; disulfide 1-8) |  | < 1000
28 | Cc1nc(C(=O)N[C@@H]2CSSC[C@H](C(N)=O)NC(=O)[C@@H](C(C)C)NC(=O)[C@@H](CC(=O)O)NC(=O)[C@H](CC(=O)O)NC(=O)CNC(=O)[C@H](CCCNC(=N)N)NC(=O)CNC2=O)cs1 [LXW86, 2-Methylthiazole-4-carbonyl-cGRGDdvc] (X3-[dC]GRGD[dD][dV][dC]-NH2; disulfide 1-8) |  | < 1000
